These are literature values, as cited in patent US11077099B2, “Oral tablet formulation of lenalidomide” (SAMYANG HOLDINGS CORPORATION, priority 2016, dated 2021).

The series relates to multiple myeloma. The following applies: combination of lenalidomide and dexamethasone; patients with relapses or refractory disease.

On to `Nc1cccc2c1CN(C1CCC(=O)NC1=O)C2=O` (centres unmarked) [lenalidomide], for which the disease-free survival time is reported as 13.4 months and the overall survival was 38 months.
